Legend:
[1] = tested on: Na,K-ATPase α2β1 isoform complex; assay: biochemical; format: biochemical, human; settings: for Selectivity α1β1/α2/β1: ratio of Ki, Table 6; for Selectivity ratio Ki α1/α2 ± S.E.: Kiα1β1/Kiα2β1
Procedure: (§1) Methods for transformation, culture of P. pastoris clones, protein expression of Na,K-ATPase human isoforms (α1β1, α2β1, α3β1), membrane preparation, solubilization of membranes in DDM, and purification on BD-Talon beads have been described in detail (6-9, 11, 25). In initial experiments the three purified isoform complexes (0.3-0.5 mg/ml) were eluted from the BD-Talon beads in a solution containing Imidazole 170 mM, NaCl 100 mM; Tricine.HCl 20 mM pH 7.4; C12E8, 0.1 mg/ml; SOPS 0.07 mg/ml cholesterol 0.01 mg/ml, glycerol 25%. In later experiments the isoforms complexes were reconstituted with purified FXYD1 on the BD-Talon beads together as described in detail in (10, 11) prior to elution of α1β1FXYD1, α2β1FXYD1 and α3β1FXYD1 complexes. The proteins were stored at −80° C. Protein concentration was determined with BCA (B9643 Sigma).
(§2) Inhibition of Na,K-ATPase activity of the detergent-soluble α1β1, α2β1, and α3β1 complexes by CG's was determined as described (6) using either the αβ or αβFXYD1 complexes. […] The K0.5K was estimated by varying K concentration in a medium containing a fixed total K+choline chloride of 60 mM, and constant NaCl of 140 mM. Curves were fitted to the Hill function v=Vmax*[S]^n/([S]^n+K^n), where S is the K concentration, n is the Hill coefficient and K^n is K0.5K. For comparison of different curves the ratio v/Vmax for each curve was calculated and replotted. In experiments to assess inhibition of Na,K-ATPase activity by cardiac glycosides of the present invention, the percent inhibition VCG/V0 was calculated and Ki values were obtained by fitting the data to the function VCG/V0=Ki/([CG]+Ki)+ c. Inhibition was estimated in 3-8 separate experiments and average Ki values ±SEM were calculated. Significance of differences between Kiα1 and Kiα2 was calculated by the unpaired Student's t-test (p values). […] P values <0.05 were considered significant.

[2] = target: T1, Na,K-ATPase α2β2 isoform complex (Homo sapiens, UniProt P50993); assay: biochemical
T1 construct: made in house; host or cells: Pichia pastoris SMD1165
Text: (§3) Human β1, β2 and β3 were cloned into the pHIL-D2 expression vector containing the human α1 or α2. pHIL-D2 expression vectors containing porcine (p) α1, human (h) α1 or human α2 with Hisx10 tagged porcine β1 were previously generated (7, 9). Human β1 (Accession: P05026), human β2 (Accession: P14415) and human β3 (Accession: […]) cDNAs in pSD5 vector were a gift from K. Geering Univ. Lausanne Switzerland. The open reading frames and flanking regions of hβ1, hβ2 and hβ3 (in pSD5) were amplified separately by polymerase chain reaction (PCR) using synthetic primers containing BglII and SalI cleavage sites. Each one of the amplified fragments were digested with BglII and SalI and ligated to BglII and SalI treated plasmid pHIL-D2-(pα1/His10pβ1) to generate pHIL-D2 (pα1/His10hβ1or2or3). hβ1, hβ2 and hβ3 containing fragments were excised from pHIL-D2-(pα1/His10hβ1or2or3) and subcloned into pHIL-D2-(hα1/His10pβ1) or pHIL-D2-(hα2/His10pβ1) to produce pHIL-D2-(hα1/His10hβ1or2or3) and pHIL-D2-(hα2/His10hβ1or2or3). The newly created plasmids were analyzed for correct integration and correct sequence of the insert by restriction enzymatic digestions and sequencing. DNA of each construct was prepared in large quantities in E. coli XL-1 Blue for Pichia pastoris transformation.
as §2

[3] = tested on: Na,K-ATPase α2β2 isoform complex; assay: biochemical; parameters: species or system human; settings: ratio of Ki, Table 6
Text: as §3, §2

[4] = target: T2, Na,K-ATPase α2β3 isoform complex (Homo sapiens, UniProt P50993); assay: biochemical
T2 construct: made in house; host or cells: Pichia pastoris SMD1165
Text: as §3, §2

[5] = tested on: Na,K-ATPase α2β3 isoform complex; assay: biochemical; parameters: species or system human; settings: ratio of Ki, Table 6
Text: as §3, §2

[6] = target: T3, Na,K-ATPase α1β1 isoform complex (Homo sapiens, UniProt P05023); assay: biochemical; parameters: made in house; host or cells: Pichia pastoris SMD1165; settings: Ki, nM ± SEM α1β1, Table 6
Procedure: as §1, §2

[7] = target: T4, Na,K-ATPase α2β1 isoform complex (Homo sapiens, UniProt P50993); assay: biochemical; format: biochemical; parameters: made in house; host or cells: Pichia pastoris SMD1165; settings: Ki, nM ± SEM α2β1, Table 6
Procedure: as §1, §2

[8] = tested on: intra-ocular pressure (IOP) of rabbits; assay: IB-MECA-induced ocular hypertension in rabbits; format: in vivo, New Zealand white rabbits; settings: single drop, 1 μM
Procedure: IB-MECA induces acute ocular hypertension by a different and well-defined mechanism. Namely, IB-MECA is a selective agonist of the A3-adenosine receptor, and rises aqueous humour inflow and IOP by activating Cl channels of the NPE cells (18, 19). […] FIG. 8A depicts the effects of DMe (0.1-1 mM) applied prior to the IB-MECA, and a similar result was obtained for DGlyN (not shown). FIG. 8B depicts effects of digoxigenin, DGlyN and DMe (1 mM) applied after the IB-MECA.
(§4) New Zealand white rabbits (3-3.5 kg) about 1 year old, of either sex, were housed individually in separate cages in animal room conditions on a reversed, 12-hour dark/light cycle. For the experiments the animals were transferred to rabbit restrainers in a quiet and calm atmosphere (FIG. 1). […] Animal care and treatment were subject to the approval of the institutional committee for animal experiments, Weizmann Institute IACUC permission (no 04270911-2).
(§5) IOP (mm Hg) of rabbits was measured using a calibrated Pneumatonometer (Model 30, Reichert technologies, FIG. 1). A local anesthetic Oxybuprocaine HCl (0.4%, 25 μl) was applied to each cornea about a minute before IOP measurements. Two baseline IOP readings were taken before topical administration of the CG (or PBS as control) and after half an hour (Zero time). […] At zero time one drop of 4AP (40 mg/ml, 30 μl) or IB-MECA (1 μM, 30 μl) was administered to both eyes of each rabbit IOP measurements were made at different times as indicated in each experiment. In the experiments for which the IOP was elevated for several hours, 4AP was added every […] or IB-MECA every 2 hours. […] In all cases the figures depict the average effect on IOP (i.e for four or six eyes) compared to control ±SEM. […] Significance of differences from the control was calculated by the unpaired Students t-test (p values), p values <0.05 were considered significant. Corneal thickness (μm) was measured using an ultrasonic pachymeter (Sonogage pachometer, Cleveland, USA), before and during the experiment with CG and 4AP treatments. The values represent averages of three independent measurements for each eye.

[9] = tested on: intra-ocular pressure (IOP) of rabbits; assay: 4-aminopyridine (4AP)-induced ocular hypertension in rabbits; format: in vivo, New Zealand white rabbits; settings: applied topically prior to 4AP
Procedure: Intra-ocular pressure in rabbits was measured using of a “Reichert Model 30™ Pneumatonometer” after anesthetizing the cornea with local anesthetic.
Since the IOP reflects a balance of the inflow and outflow of aqueous humour, reduction of the increased 4AP-induced inflow of aqueous humour by cardiac glycosides should prevent the increase in IOP. Thus, the standard experimental design to test effects of cardiac glycosides involved topical application of the compounds (1 drop in each eye) 30 minutes prior to application of 4AP and measurement of IOP every 30 minutes over five hours. […] Each experiment was done three times, but the figures depict a representative experiment using a different rabbit for each concentration of the cardiac glycoside.
DGlyN or DMe (0.1 or 1 mM) were applied one hour after the first application of 4AP, which was added every two hours.
as §4, §5

[10] = target: T3, Na,K-ATPase α1β1 isoform complex; assay: biochemical; settings: Ki ± S.E. α1, Table 2; α1β1
Procedure: as §1, §2

[11] = target: T4, Na,K-ATPase α2β1 isoform complex; assay: biochemical; format: biochemical; settings: Ki ± S.E. α2, Table 2; α2β1
Procedure: as §1, §2

SMILES | Selectivity α1β1/α2/β1 [1] | Ki [2] [nM] | Selectivity α1β1/α2/β2 [3] | Ki [4] [nM] | Selectivity α1β1/α2β3 [5] | Ki [6] [nM] | Ki [7] [nM] | Effect on IOP [8] | Concentration required to fully prevent the rise in IOP [9] [µM] | Ki [10] [nM] | Ki [11] [nM] | Selectivity ratio Ki α1/α2 ± S.E. [1]
CC1CN(C[Si](C)(C)C)CCC(OC2C(O)CC(OC3C(O)CC(OC4CCC5(C)C(CCC6C5CC(O)C5(C)C(C7=CC(=O)OC7)CCC65O)C4)OC3C)OC2C)O1 (stereo not drawn) [DTMS] | 3.4 | 15 | 7.2 | 7.8 | 13.8 | 108 | 31.5 | – | – | – | – | –
CNC(=O)[C@H]1O[C@@H](n2cnc3c(NCc4cccc(I)c4)ncnc32)[C@H](O)[C@@H]1O [IB-MECA, reference compound] | – | – | – | – | – | – | – | significant but transient increase in IOP | – | – | – | –
CCCN1CCC(OC2C(O)CC(OC3C(O)CC(OC4CCC5(C)C(CCC6C5CC(O)C5(C)C(C7=CC(=O)OC7)CCC65O)C4)OC3C)OC2C)OC(C)C1 (stereo not drawn) [DP] | 4.8 | 10.5 ± 1.8 | 8.3 | 9.8 ± 1.1 | 8.8 | 87.7 ± 7.9 | 18.3 ± 1.68 | – | – | – | – | –
CC(C)CN1CCC(OC2C(O)CC(OC3C(O)CC(OC4CCC5(C)C(CCC6C5CC(O)C5(C)C(C7=CC(=O)OC7)CCC65O)C4)OC3C)OC2C)OC(C)C1 (stereo not drawn) [DIB] | – | 10 ± 0.8 | – | 5.8 | – | 92 ± 8.9 | 20.6 ± 1.4 | – | > 30 | – | – | –
CC1CN(C(C)C)CCC(OC2C(O)CC(OC3C(O)CC(OC4CCC5(C)C(CCC6C5CC(O)C5(C)C(C7=CC(=O)OC7)CCC65O)C4)OC3C)OC2C)O1 (stereo not drawn) [DIP] | 5.1 | 16.7 ± 1.9 | 8.9 | 10.3 ± 1.8 | 14.4 | 149 ± 20.7 | 28.9 ± 1.7 | – | – | – | – | –
CC1CN(C(C)(C)C)CCC(OC2C(O)CC(OC3C(O)CC(OC4CCC5(C)C(CCC6C5CC(O)C5(C)C(C7=CC(=O)OC7)CCC65O)C4)OC3C)OC2C)O1 (stereo not drawn) [DtB] | 6.2 | 18.4 ± 1.1 | 7.3 | 16.3 ± 0.28 | 8.2 | 135 ± 12.1 | 21.6 ± 5.6 | – | – | – | – | –
CC1CN(CC(F)(F)F)CCC(OC2C(O)CC(OC3C(O)CC(OC4CCC5(C)C(CCC6C5CC(O)C5(C)C(C7=CC(=O)OC7)CCC65O)C4)OC3C)OC2C)O1 (stereo not drawn) [DMeCF3] | 4.1 | 18.1 ± 1.9 | 6.5 | 12.4 ± 1.5 | 9.6 | 119 ± 15 | 28.6 ± 0.9 | – | – | 199 ± 33 | 44 ± 7 | 4.50 ± 1.0
CCN1CCC(OC2C(O)CC(OC3C(O)CC(OC4CCC5(C)C(CCC6C5CC(O)C5(C)C(C7=CC(=O)OC7)CCC65O)C4)OC3C)OC2C)OC(C)C1 (stereo not drawn) [DEt] | 5.9 | 16.4 ± 1.6 | 8.3 | 14.4 ± 1.27 | 9.5 | 138 ± 12.6 | 23.2 ± 0.9 | – | – | 53 ± 3.4 | 18.5 ± 4.9 | 2.88 ± 0.78
